Results as given in US10842804B2 (MEDIGEN BIOTECHNOLOGY CORP., priority 2017, dated 2020).

Assay: Phase III trial: safety profiles, treatment completion and compliance
Details: in vivo
Protocol: After signing the consent form, the eligibility of each patient was verified according to the enrollment criteria by checking his/her medical records and current disease conditions. Eligible patients were stratified by tumor size (<5 cm vs. ≥5 cm) and vascular invasion (no vs. yes) and then randomized at a ratio of 1:1 within strata to receive PI-88 (160 mg/day) or a placebo by using a centralized interactive web response system (Cenduit Interactive Response Technology; Cenduit, Durham, N.C., USA).
PI-88 or placebo was administered in a single subcutaneous injection each day for four consecutive days per week for 3 weeks out of every 4 weeks (a cycle with 4-weeks). The days of injection were the same in every administration week. After an initial training period of 1-8 days, participants self-administered the study drug at home. Participants received treatment for up to 52 weeks and were followed until 96 weeks.
If the antiheparin antibody test was positive, the participant was asked to permanently discontinue the treatment.
The distributional properties of continuous variables are expressed as mean t standard deviation, categorical variables are presented as frequency and percentage (%), and the survival curves of the DFS period were estimated using the Kaplan-Meier method. Baseline demographic and clinical characteristics were compared between the PI-88 and placebo groups. […]

## muparfostat [PI-88]
  fatal AEs during the study treatment period: No patients
